The text below walks through data of US20260216359A1, “CYCLIC PEPTIDE-BASED LYSOSOME TARGETING DEGRADERS” (Wisconsin Alumni Research Foundation, priority 2023, published 2026).

Assay [1] relates to EGFR. Description: inhibition of Ctx-PEG12-cRGD-induced EGFR degradation in MCF7 cells, western blot. It is filed as cell-based. Conditions: BAF1 50 nM, CQ 10 uM, in the presence of 10 nM Ctx-PEG12-cRGD for 6h. As to the method:
MCF7 cells were seeded at 70% confluence in a 24-well plate and incubated in 350 μL complete culture media overnight. Cells were pre-treated with free excess cRGD-azide with concentrations indicated in the figure at 4° C. for 1 h before incubating with 10 nm Ctx-PEG12-cRGD for 8 h. Cells were then harvested for western blot.
MCF7 cells were seeded at 70% confluence in a 24-well plate and incubated in 350 μL complete culture media overnight. Cells were treated with lysosomal degradation inhibitor Bafilomycin A1 (BAF1) at 50 nM and Chloroquine (CQ) at 10 uM in the presence of 10 nM Ctx-PEG12-cRGD for 6h.
(Immunoblotting shows a protein as a band on a membrane.)

Assay [2] concerns the target α5β1 (Homo sapiens, UniProt P05556+P08648). The settings on record: Kapp et al., 2017; one range given for αvβ5, αvβ6, α5β1; cited from earlier work.
Assay [3] concerns anti-biotin-647. Description: lysosomal degradation of anti-biotin-647 in MCF7 cells, in gel fluorescence. It is filed as cell-based. Conditions: 25 nM Ab-cRGD and 50 nM anti-biotin-647 for 3 h, then 50 nM BAF1 for 3 h. As to the method: MCF7 cells were seeded in a 48-well plate at 70% confluence and maintained in 200 μL complete culture media. Next day, cells were incubated with 25 nM of Ab-cRGD and 50 nM of anti-biotin-647 for 3 h followed by three washes with PBS. Cells were then maintained in fresh media with or without 50 nM Bafilomycin A1 (BAF1) for another 3 h before harvested for in gel fluorescence analysis.

Chain of α5β1 (P08648 42-894 limits assumed): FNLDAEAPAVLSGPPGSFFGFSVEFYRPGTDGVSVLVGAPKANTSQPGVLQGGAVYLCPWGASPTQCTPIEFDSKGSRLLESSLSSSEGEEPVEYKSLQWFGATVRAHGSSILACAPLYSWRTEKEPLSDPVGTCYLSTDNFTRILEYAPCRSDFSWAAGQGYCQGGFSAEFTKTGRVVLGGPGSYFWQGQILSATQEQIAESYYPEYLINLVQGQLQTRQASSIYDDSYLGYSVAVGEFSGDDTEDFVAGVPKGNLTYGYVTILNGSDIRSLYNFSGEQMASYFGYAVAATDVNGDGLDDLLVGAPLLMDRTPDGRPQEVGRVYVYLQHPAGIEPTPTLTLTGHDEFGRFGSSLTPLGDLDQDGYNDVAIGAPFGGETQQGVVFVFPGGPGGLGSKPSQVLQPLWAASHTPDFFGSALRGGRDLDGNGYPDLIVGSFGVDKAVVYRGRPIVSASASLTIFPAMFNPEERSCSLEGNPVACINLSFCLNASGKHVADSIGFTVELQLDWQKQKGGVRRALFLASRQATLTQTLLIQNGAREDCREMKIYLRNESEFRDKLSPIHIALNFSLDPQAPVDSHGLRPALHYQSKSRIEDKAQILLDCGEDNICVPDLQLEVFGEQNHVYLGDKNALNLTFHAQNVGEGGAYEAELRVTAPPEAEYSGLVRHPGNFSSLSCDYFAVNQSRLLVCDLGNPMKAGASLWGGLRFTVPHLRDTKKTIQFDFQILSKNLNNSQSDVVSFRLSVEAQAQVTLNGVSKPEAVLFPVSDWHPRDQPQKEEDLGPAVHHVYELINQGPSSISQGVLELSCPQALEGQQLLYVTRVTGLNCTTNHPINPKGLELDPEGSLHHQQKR
Chain of α5β1 (P08648 895-995 partner limits assumed): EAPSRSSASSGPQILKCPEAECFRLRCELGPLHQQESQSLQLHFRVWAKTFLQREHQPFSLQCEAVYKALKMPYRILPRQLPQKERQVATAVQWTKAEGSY
Chain of α5β1 (P05556 21-728 limits assumed): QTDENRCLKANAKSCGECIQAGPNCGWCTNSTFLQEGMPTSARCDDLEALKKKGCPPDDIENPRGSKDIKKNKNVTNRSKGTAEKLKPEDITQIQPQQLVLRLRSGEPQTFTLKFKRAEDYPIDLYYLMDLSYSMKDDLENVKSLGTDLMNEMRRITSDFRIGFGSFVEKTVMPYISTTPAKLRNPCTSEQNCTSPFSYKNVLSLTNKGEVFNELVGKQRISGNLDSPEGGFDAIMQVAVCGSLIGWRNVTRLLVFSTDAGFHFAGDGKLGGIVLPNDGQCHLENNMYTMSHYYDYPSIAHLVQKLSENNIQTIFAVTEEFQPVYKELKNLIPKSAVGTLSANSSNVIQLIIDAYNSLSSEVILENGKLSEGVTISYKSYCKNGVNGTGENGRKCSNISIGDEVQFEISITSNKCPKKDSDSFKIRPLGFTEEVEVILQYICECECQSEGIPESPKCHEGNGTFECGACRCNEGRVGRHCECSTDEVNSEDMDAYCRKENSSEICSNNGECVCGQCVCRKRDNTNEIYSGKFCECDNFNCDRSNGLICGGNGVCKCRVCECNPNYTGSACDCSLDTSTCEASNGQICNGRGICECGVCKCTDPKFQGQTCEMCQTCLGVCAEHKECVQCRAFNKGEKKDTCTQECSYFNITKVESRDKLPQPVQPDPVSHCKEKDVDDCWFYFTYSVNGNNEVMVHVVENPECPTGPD

On to `CCN(CC)CCCC(C)Nc1ccnc2cc(Cl)ccc12` (stereo not shown) [Chloroquine], for which the “inhibition of EGFR degradation by lysosomal degradation inhibitors (FIG. 16)” value in assay [1] is listed as “inhibition of EGFR degradation”. Regarding cyclo(Arg-Gly-Asp-D-Phe-Lys) [cRGD], in assay [2], the “binding to α5β1” value was 50 to 350 nM.

`CO/C1=C\C(C)=C\[C@@H](C)[C@@H](O)[C@@H](C)C/C(C)=C/C=C/[C@H](OC)[C@@H]([C@@H](C)[C@@H](O)[C@H](C)[C@@]2(O)C[C@@H](O)[C@H](C)[C@@H](C(C)C)O2)OC1=O` [Bafilomycin A1]: the “inhibition of lysosomal degradation of anti-biotin-647 (FIG. 14)” value in assay [3] was “inhibition of lysosomal degradation of anti-biotin-647”. Further, the “inhibition of EGFR degradation by lysosomal degradation inhibitors (FIG. 16)” value in assay [1] was “inhibition of EGFR degradation”.
